# Test results from US9090568B2, “Quinazolinediones and their use” (IMPACT Therapeutics, Inc., priority 2011, dated 2015).
# Read-outs that look alike come from different tables or passages of the source.
# Legend:
# PARP-1 = target: T1, PARP-1 (Homo sapiens, UniProt P09874); experiment: PARP-1 activity assay (HT Universal chemiluminescent PARP Assay Kit); assay type: biochemical; conditions: 0.5 unit/well PARP-1, 25° C., 45 minutes; read-out: PARP1 enzyme IC50
# T1 construct: purchased Trevigen
# Description: PARP-1 activity was determined using a HT Universal chemiluminescent PARP Assay Kit (Trevigen, Gaithersburg, Md., USA). The assay was to measure the incorporation of biotinylated poly(ADP-ribose) onto histone proteins catalyzed by PARP-1 upon activation with DNA. Experimental procedures were followed according to the instruction provided with the assay kit. In brief, PARP-1 (0.5 unit/well) was incubated with activated DNA and NAD^+ in reaction buffer in the presence or absence of test articles in histone-coated strip wells at 25° C. for 45 minutes. After incubation, the strip wells were incubated with Strep-HRP at 25° C. for 60 minutes after washes with PBS containing 0.1% Triton X-100. The chemiluminescence was measured with a Victor X5 2030 Multilabel Reader (Perkin Elmer) immediately after the addition of PeroxyGlow™ to the strip wells. IC50 value was calculated using median-effect method (Chou, T. C. (2006). Pharmacol. Rev. 58(3): 621-681).
# MDA-MB-436 cells = experiment: Cell proliferation assay (MTS, 7 days); assay type: cell-based; conditions: Homo sapiens
# Description: Cell Proliferation Assay:
# MDA-MB-436 cells were purchased from American Type Culture Collection (USA). Cells were maintained at 37° C. in a humidified atmosphere with 5% CO2. For proliferation test, MDA-MB-436 cells were seeded in 96-well plates at low density in RPMI-1640 medium supplemented with 10% FBS and incubated for 24 h at 37° C. in a humidified atmosphere with 5% CO2. Cells were further incubated in fresh medium in the presence or absence of the test articles at 37° C. for 7 days. The proliferation of cells was measured with a 3-(4,5-dimethylthiazol-2-yl)-5-(3-carboxymethoxyphenyl)-2-(4-sulfophenyl)-2H-tetrazolium (MTS) assay using a CellTiter 96® Aqueous Non-Radioactive Cell Proliferation kit (Promega). The absorbance at 490 nm (A490) was determined with a Victor X5 2030 Multilabel Reader (Perkin Elmer). IC50 value was calculated using median-effect method (Chou, T. C. (2006). Pharmacol. Rev. 58(3): 621-681).
# [1] = Pharmacokinetic assay, intravenous and oral administration; assay type: in vivo, Sprague-Dawley rats; conditions: after oral administrations in rats; for half-life: Sprague-Dawley, rat, plasma, read-out: t½
# Description: The tested articles were given to Sprague-Dawley rats by intravenous and oral administration. Plasma samples were prepared from blood samples which were collected at various time points. The plasma concentrations of the tested articles were determined by specific LC-MS/MS analytical methods. Pharmacokinetic parameters were calculated with WinNonlin®.
# [2] = 168 h, MDA-MB-436 cells, 7 days, MTS, read-out: MDA-MB-436 cells EC50
# T1 sequence (P09874 whole entry): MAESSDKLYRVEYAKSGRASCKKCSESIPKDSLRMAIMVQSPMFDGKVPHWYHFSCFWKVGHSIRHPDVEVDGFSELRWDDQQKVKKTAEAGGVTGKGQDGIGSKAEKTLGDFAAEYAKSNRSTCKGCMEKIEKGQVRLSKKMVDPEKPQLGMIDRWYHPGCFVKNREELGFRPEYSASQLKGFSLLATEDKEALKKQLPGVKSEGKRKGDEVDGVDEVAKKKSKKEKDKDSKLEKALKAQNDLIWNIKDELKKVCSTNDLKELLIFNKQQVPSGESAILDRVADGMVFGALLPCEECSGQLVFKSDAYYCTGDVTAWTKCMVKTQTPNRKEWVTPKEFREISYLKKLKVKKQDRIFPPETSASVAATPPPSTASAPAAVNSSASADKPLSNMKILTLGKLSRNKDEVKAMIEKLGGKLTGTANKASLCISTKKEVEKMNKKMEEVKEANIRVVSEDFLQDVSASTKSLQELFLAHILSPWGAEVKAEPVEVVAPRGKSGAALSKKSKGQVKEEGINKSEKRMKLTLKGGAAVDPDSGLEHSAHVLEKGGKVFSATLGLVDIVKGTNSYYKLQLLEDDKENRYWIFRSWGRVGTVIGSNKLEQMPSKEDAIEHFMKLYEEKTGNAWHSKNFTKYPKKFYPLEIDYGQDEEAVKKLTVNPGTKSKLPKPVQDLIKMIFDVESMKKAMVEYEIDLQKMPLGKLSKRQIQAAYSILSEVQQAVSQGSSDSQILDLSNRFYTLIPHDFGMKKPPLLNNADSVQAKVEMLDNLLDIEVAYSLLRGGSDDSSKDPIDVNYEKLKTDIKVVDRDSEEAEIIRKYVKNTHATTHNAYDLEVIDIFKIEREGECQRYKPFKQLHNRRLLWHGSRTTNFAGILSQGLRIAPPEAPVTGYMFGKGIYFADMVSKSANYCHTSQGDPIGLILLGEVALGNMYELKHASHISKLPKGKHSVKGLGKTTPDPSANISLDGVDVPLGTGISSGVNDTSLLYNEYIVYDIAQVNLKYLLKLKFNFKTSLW
SMILES,IC50 (PARP-1) [nM],EC50 (MDA-MB-436 cells; [2]) [µM],"EC50 (MDA-MB-436 cells; MDA-MB-436, 168 h, read-out: MDA-MB-436 cells EC50 (μM)) [µM]",half-life [1] [h],bioavailability (in words) [1]
O=C(O)C1CCN(C(=O)c2cc(Cn3c(=O)[nH]c(=O)c4ccccc43)ccc2F)CC1 [Example 20],> 10,–,–,–,–
COC(=O)C1CCN(C(=O)c2cc(Cn3c(=O)[nH]c(=O)c4ccccc43)ccc2F)CC1 [Example 18],0.1 to 10,1 to 100,–,–,–
O=C(c1cc(Cn2c(=O)[nH]c(=O)c3ccccc32)ccc1F)N1CCN(C(=O)C2CC2)CC1 [Example 1],0.1 to 10,–,> 0.01,–,–
Cc1cc(C(=O)N2CCN(C(=O)c3cc(Cn4c(=O)[nH]c(=O)c5ccccc54)ccc3F)CC2)on1 [Example 36],0.1 to 10,> 0.01,–,–,–
O=C(c1cc(Cn2c(=O)[nH]c(=O)c3ccccc32)ccc1F)N1CCC(OC(F)F)CC1 [Example 11],0.1 to 10,1 to 100,–,–,–
O=C(c1cnco1)N1CCN(C(=O)c2cc(Cn3c(=O)[nH]c(=O)c4ccccc43)ccc2F)CC1 [Example 34],0.1 to 10,> 0.01,–,–,–
O=C(c1cc(Cn2c(=O)[nH]c(=O)c3ccccc32)ccc1F)N1Cc2cccc(F)c2C1 [Example 24],0.1 to 10,> 0.01,–,–,–
O=C(c1cc(Cn2c(=O)[nH]c(=O)c3ccccc32)ccc1F)N1CCC(Oc2ccccn2)CC1 [Example 12],0.1 to 10,0.0001 to 0.01,–,–,–
O=C(c1cc(Cn2c(=O)[nH]c(=O)c3ccccc32)ccc1F)N1Cc2cccnc2C1 [Example 25],0.1 to 10,> 0.01,–,> 2,bioavailable
CCNC(=O)OC1CCN(C(=O)c2cc(Cn3c(=O)[nH]c(=O)c4ccccc43)ccc2F)CC1 [Example 19],> 10,1 to 100,–,–,–
"O=C(c1cc(Cn2c(=O)[nH]c(=O)c3ccccc32)ccc1F)N1CCNCC1 [Example 30b, 1-(4-fluoro-3-(piperazine-1-carbonyl)benzyl)quinazoline-2,4(1H,3H)-dione hydrochloric acid]",0.1 to 10,–,–,–,–
O=C(c1ccno1)N1CCN(C(=O)c2cc(Cn3c(=O)[nH]c(=O)c4ccccc43)ccc2F)CC1 [Example 31],0.1 to 10,> 0.01,–,–,–
O=C(c1cc(Cn2c(=O)[nH]c(=O)c3ccccc32)ccc1F)N1CCN(c2ncccn2)CC1 [Example 28],0.1 to 10,0.0001 to 0.01,–,–,–
O=C(c1ccccn1)N1CCN(C(=O)c2cc(Cn3c(=O)[nH]c(=O)c4ccccc43)ccc2F)CC1 [Example 30],0.1 to 10,> 0.01,–,–,–
O=C(c1cc(Cn2c(=O)[nH]c(=O)c3ccccc32)ccc1F)N1CCC(n2cccn2)CC1 [Example 15],0.1 to 10,1 to 100,–,–,–
Cc1cc(C(=O)N2CCN(C(=O)c3cc(Cn4c(=O)[nH]c(=O)c5ccccc54)ccc3F)CC2)no1 [Example 35],0.1 to 10,> 0.01,–,–,–
O=C(c1cc(Cn2c(=O)[nH]c(=O)c3ccccc32)ccc1F)N1CCC(N2CCCC2)CC1 [Example 17],0.1 to 10,> 0.01,–,–,–

SMILES,IC50 (PARP-1) [nM],EC50 (MDA-MB-436 cells; [2]) [µM],"EC50 (MDA-MB-436 cells; MDA-MB-436, 168 h, read-out: MDA-MB-436 cells EC50 (μM)) [µM]",half-life [1] [h],bioavailability (in words) [1]
O=C(c1cc(Cn2c(=O)[nH]c(=O)c3ccccc32)ccc1F)N1CC=C(c2ccc(F)cc2)CC1 [Example 29],0.1 to 10,1 to 100,–,–,–
CC1(C(=O)N2CCN(C(=O)c3cc(Cn4c(=O)[nH]c(=O)c5ccccc54)ccc3F)CC2)CCCO1 (stereo not shown) [Example 39],0.1 to 10,> 0.01,–,–,–
O=C(c1cc(Cn2c(=O)[nH]c(=O)c3ccccc32)ccc1F)N1CCN(C(=O)C2CCCO2)CC1 (stereo not shown) [Example 38],0.1 to 10,> 0.01,–,> 2,bioavailable
O=C(OC1CCCC1)N1CCN(C(=O)c2cc(Cn3c(=O)[nH]c(=O)c4ccccc43)ccc2F)CC1 [Example 42],0.1 to 10,> 0.01,–,–,–
"CC1(C(=O)N2CCN(C(=O)c3cc(Cn4c(=O)[nH]c(=O)c5ccccc54)ccc3F)CC2)CCCN1 (stereo in doubt) [Example 40, (R)-1-(4-fluoro-3-(4-(2-methylpyrrolidine-2-carbonyl)piperazine-1-carbonyl)benzyl)quinazoline-2,4(1H,3H)-dione]",0.1 to 10,> 0.01,–,–,–
O=C(c1cccc(Cn2c(=O)[nH]c(=O)c3ccccc32)c1)N1CCN(C(=O)C2CC2)CC1 [Example 2],0.1 to 10,1 to 100,–,–,–
O=C(c1cnccn1)N1CCN(C(=O)c2cc(Cn3c(=O)[nH]c(=O)c4ccccc43)ccc2F)CC1 [Example 32],0.1 to 10,> 0.01,–,–,–
O=C(NC1CC1)C1CCN(C(=O)c2cc(Cn3c(=O)[nH]c(=O)c4ccccc43)ccc2F)CC1 [Example 21],> 10,1 to 100,–,–,–
Cc1cnc(C(=O)N2CCN(C(=O)c3cc(Cn4c(=O)[nH]c(=O)c5ccccc54)ccc3F)CC2)cn1 [Example 33],0.1 to 10,> 0.01,–,–,–
Cc1nc(C)c(C(=O)N2CCN(C(=O)c3cc(Cn4c(=O)[nH]c(=O)c5ccccc54)ccc3F)CC2)o1 [Example 37],0.1 to 10,> 0.01,–,–,–
CCOC(=O)N1CCN(C(=O)c2cc(Cn3c(=O)[nH]c(=O)c4ccccc43)ccc2F)CC1 [Example 41],0.1 to 10,> 0.01,–,–,–
O=C(c1cc(Cn2c(=O)[nH]c(=O)c3ccccc32)ccc1F)N1CCC(n2cc(Br)cn2)CC1 [Example 14],0.1 to 10,> 0.01,–,–,–
O=C(c1cc(Cn2c(=O)[nH]c(=O)c3ccccc32)ccc1F)N1CCC(ON=C2CCc3ccccc32)CC1 [Example 22],> 10,–,–,–,–
O=C(c1cc(Cn2c(=O)[nH]c(=O)c3ccccc32)ccc1Cl)N1CCN(C(=O)C2CC2)CC1 [Example 3],0.1 to 10,1 to 100,–,–,–
O=C(c1cc(Cn2c(=O)[nH]c(=O)c3ccccc32)ccc1F)N1Cc2nccnc2C1 [Example 26],0.1 to 10,> 0.01,–,–,–
O=C(c1cc(Cn2c(=O)[nH]c(=O)c3ccccc32)ccc1F)N1CCCCC1 [Example 4],> 10,1 to 100,–,–,–
